Assay results: patent US20210368825A1, “FEED ADDITIVE FOR DAIRY CATTLE COMPRISING N-ACETYL-L-TRYPTOPHAN AS ACTIVE INGREDIENT” (CJ CHEILJEDANG CORPORATION, priority 2018, published 2021)
“Also recorded” adds a separate entry of the source.

Assays:
[1] = test system: milking cows after calving; experiment: Analysis of milk yield of dairy cattle after calving according to NALT feeding; assay type: in vivo, Holstein Friesian cows
Text: (§1) From among Holstein Friesian cows in the late stage of gestation corresponding to 60 days before calving, 8 cows were selected in consideration of calving time (expected calving date±15 days), the number of calving (calving number), and the like, and 4 cows were assigned to each of a control (untreated) and a treated group.
(§2) In the present disclosure, as a basal diet fed during a dry period and a milking period, total mixed ration (TMR), roughage, and concentrates were provided in accordance with NRC (2001) nutrition requirements for dry cows. In the case of the treated group, evaluation was performed by supplementing N-acetyl-L-tryptophan (NALT) to the basal diet. Newborn calves were fed with colostrum for 3 days and then fed with milk obtained during a milking process for 8 weeks.
(§3) Evaluation of feed feeding before calving by feeding N-acetyl-L-tryptophan was performed for 60±8 days (error caused by difference in expected calving dates). The control was fed with the basal diet, and the treated group was fed with the basal diet supplemented with 15 g of NALT.
Milk yield of each of the 8 milking cows used in the present disclosure was recorded at 3 a.m. and 3 p.m. every day for 8 weeks, and average milk yield was calculated after pooling them every two weeks after calving.

[2] = test system: dairy cattle after calving; experiment: Change in hematological properties of dairy cattle after calving according to NALT feeding; assay type: in vivo, Holstein Friesian cows
Text: as §1, §2, §3
(§4) Blood was collected from dairy cattle and calves during 6 weeks of the dry period and immediately after calving via the jugular vein before feeding a morning feed every 2 weeks for 8 weeks. The collected blood was aliquoted into a serum tube (BD Vacutainer, Plymouth, UK) and a heparin tube (Becton-Dickinson, Belliver Industrial Estate, Plymouth, PL6 7BP, UK) and centrifuged (3,500 rpm, 15 min, 20° C.) to separate plasma.
(§5) Blood samples for analysis of changes in hematological properties such as white blood cells (WBC), lymphocytes, monocytes, granulocytes, mean corpuscular volume, mean corpuscular hemoglobin, and platelets were aliquoted into an ethylenediaminetetraacetic acid (EDTA)-treated vacutainer (Becton-Dickinson, Franklin Lakes, N.J., USA) and analyzed using a VetScan HM2 Hematology System (ABAXIS, Calif., USA).

[3] = test system: calves born from dairy cattle; experiment: Metabolic change of calves born from dairy cattle according to NALT feeding; assay type: in vivo, Holstein Friesian cows (calves)
Text: as §1, §2, §3, §4
(§6) Samples for analysis of metabolic changes such as albumin, glutamic-oxalacetic transaminase (GOT), blood urea nitrogen (BUN), triglycerides (TG), cholesterol (CHO), glucose (GLU), and non-esterified fatty acid (NEFA) were aliquoted into a 1.5 mL tube (Eppendorf AG, Hamburg, Germany) in an amount of 500 μL each and stored in a deep freezer at −80° C.

[4] = test system: dairy cattle in dry period; design: species or system Holstein Friesian cows; settings: in vivo
Text: as §1, §2, §3, §4, §6

[5] = test system: dairy cattle after calving; design: species or system Holstein Friesian cows; settings: in vivo
Text: as §1, §2, §3, §4, §6

[6] = test system: calves born from dairy cattle; experiment: Change in hematological properties of calves born from dairy cattle according to NALT feeding; assay type: in vivo, Holstein Friesian cows (calves)
Text: as §1, §2, §3, §4, §5

[7] = calves born from NALT-treated dairy cattle

Compound: CC(=O)N[C@@H](Cc1c[nH]c2ccccc12)C(=O)O [NALT, N-acetyl-L-tryptophan]
- Milk yield ([1]; 0 wk (immediately after calving)): 24.03 kg
- increase in average milk yield compared with control ([1]; 8 weeks after calving): ≥ 4 kg
- Milk yield, total AVG ([1]; average over 8 weeks after calving): 35.44 kg
- effect on hematological properties of dairy cattle compared with control [2]: did not significantly affect
- Monocyte ([2]; 0 wk, reference 0-0.84): 0.92 K/uL
- Granulocyte ([2]; 0 wk, reference 0.6-6.7): 6.41 K/uL
- Lymphocyte ([2]; 0 wk, reference 2.5-7.5): 7.99 K/uL
- WBC ([2]; 0 wk, reference 4-12): 15.32 K/uL
- MCH ([2]; 0 wk, reference 11-17): 16.80 pg
- MCV ([2]; 0 wk, reference 40-60): 47.00 fL
- Platelet ([2]; 0 wk, reference 100-800): 348.75 K/ul
- Monocyte, total AVG ([2]; average 0 to 8 weeks, reference 0-0.84): 0.91 K/uL
- Granulocyte, total AVG ([2]; average 0 to 8 weeks, reference 0.6-6.7): 5.18 K/uL
- Lymphocyte, total AVG ([2]; average 0 to 8 weeks, reference 2.5-7.5): 7.86 K/uL
- WBC, total AVG ([2]; average 0 to 8 weeks, reference 4-12): 13.95 K/uL
- MCH, total AVG ([2]; average 0 to 8 weeks, reference 11-17): 16.60 pg
- MCV, total AVG ([2]; average 0 to 8 weeks, reference 40-60): 46.55 fL
- Platelet, total AVG ([2]; average 0 to 8 weeks, reference 100-800): 480.51 K/ul
- glucose (Glu) index of newborn calves compared with control ([3]; calves of the NALT-treated group, 8 weeks after birth): statistically significant difference; also recorded: decreasing a blood glucose level
- Albumin ([3]; calves, 0 wk): 2.50 g/dL
- BUN ([3]; calves, 0 wk): 10.00 mg/dL
- CHO ([3]; calves, 0 wk): 33.00 mg/dL
- GLU ([3]; calves, 0 wk): 54.75 mg/dL
- GOT ([3]; calves, 0 wk): 47.25 U/L
- TG ([3]; calves, 0 wk): 14.50 mg/dL
- Albumin, total AVG ([3]; calves, average 0 to 8 weeks): 3.36 g/dL
- BUN, total AVG ([3]; calves, average 0 to 8 weeks): 11.30 mg/dL
- CHO, total AVG ([3]; calves, average 0 to 8 weeks): 109.30 mg/dL
- GOT, total AVG ([3]; calves, average 0 to 8 weeks): 62.55 U/L
- TG, total AVG ([3]; calves, average 0 to 8 weeks): 34.40 mg/dL
- GLU, total AVG ([3]; calves, average 0 to 8 weeks, P 0.015): 78.95 mg/dL
- Albumin [4]: 3.93 g/dL
- Albumin, total AVG [4]: 3.74 g/dL
- BUN [4]: 12.25 mg/dL
- BUN, total AVG [4]: 9.88 mg/dL
- CHO [4]: 194.00 mg/dL
- CHO, total AVG [4]: 143.08 mg/dL
- GLU [4]: 50.00 mg/dL
- GLU, total AVG [4]: 50.52 mg/dL
- GOT [4]: 82.50 U/L
- GOT, total AVG [4]: 80.92 U/L
- TG [4]: 16.25 mg/dL
- TG, total AVG [4]: 19.88 mg/dL
- effect on metabolic changes of dairy cattle compared with control [4]: did not significantly affect
- Albumin [5]: 3.73 g/dL
- Albumin, total AVG [5]: 4.01 g/dL
- BUN [5]: 10.75 mg/dL
- BUN, total AVG [5]: 16.75 mg/dL
- CHO [5]: 101.25 mg/dL
- CHO, total AVG [5]: 188.45 mg/dL
- GLU [5]: 83.75 mg/dL
- GLU, total AVG [5]: 68.35 mg/dL
- GOT [5]: 87.00 U/L
- GOT, total AVG [5]: 89.65 U/L
- TG [5]: 8.00 mg/dL
- TG, total AVG [5]: 9.45 mg/dL
- effect on metabolic changes of dairy cattle compared with control [5]: did not significantly affect
- initial index of mean corpuscular hemoglobin (MCH) of newborn calves compared with control [6, 7]: statistically significant difference
- initial index of mean corpuscular volume (MCV) of newborn calves compared with control [6, 7]: statistically significant difference
- monocyte index of newborn calves compared with control [6, 7]: significant differences
- Monocyte ([6]; calves, 0 wk, reference 0-0.84): 0.32 K/uL
- Granulocyte ([6]; calves, 0 wk, reference 0.6-6.7): 9.68 K/uL
- Lymphocyte ([6]; calves, 0 wk, reference 2.5-7.5): 3.72 K/uL
- WBC ([6]; calves, 0 wk, reference 4-12): 13.72 K/uL
- MCH ([6]; calves, 0 wk, reference 11-17, P 0.056): 12.95 pg
- MCV ([6]; calves, 0 wk, reference 40-60, P 0.027): 39.00 fL
- Platelet ([6]; calves, 0 wk, reference 100-800): 512.75 K/ul
- Monocyte, total AVG ([6]; calves, average 0 to 8 weeks, reference 0-0.84, P 0.031): 0.53 K/uL
- Granulocyte, total AVG ([6]; calves, average 0 to 8 weeks, reference 0.6-6.7): 4.69 K/uL
- Lymphocyte, total AVG ([6]; calves, average 0 to 8 weeks, reference 2.5-7.5): 6.93 K/uL
- WBC, total AVG ([6]; calves, average 0 to 8 weeks, reference 4-12): 12.14 K/uL
- MCH, total AVG ([6]; calves, average 0 to 8 weeks, reference 11-17): 11.20 pg
- MCV, total AVG ([6]; calves, average 0 to 8 weeks, reference 40-60): 31.80 fL
- Platelet, total AVG ([6]; calves, average 0 to 8 weeks, reference 100-800): 584.35 K/ul
- immune response of the calves born from dairy cattle ([6]; conclusion drawn from hematology of calves): positive effects
